From paper PMC2866539, “HLA Class I Binding 9mer Peptides from Influenza A Virus Induce CD4^+ T Cell Responses” (PLoS ONE, 2010)
Where no end group is shown, it is not given here.

Key:
Assay in all cases: biochemical
Assay type in all cases: binding
[1] = molecular target: T1, DRA1*0101/DRB1*0101 (Homo sapiens, UniProt P01903+P01911, A100R/D57E/F55L/F60I/F76Y/I96L/L162R/M171V/P40L/Q125E/R42F/V115G/Y59C)
T1 construct: made in house

[2] = molecular target: DRA1*0101/DRB1*0301 (Homo sapiens, UniProt P01903+P01911, A100K/A102G/A103R/A169T/F55Y/I96L/K41T/L162R/M171V/P40S/Q125H/Q178H/Q39Y/R42S/S66N/T106N/T262R/W38E/Y61H)
[3] = molecular target: DRA1*0101/DRB1*0302 (Homo sapiens, UniProt P01903+P01911, A100K/A102G/A103R/A169T/D57E/F76Y/I96L/K41T/L162R/M171V/P40S/Q125H/Q178H/Q39Y/R42S/S66N/T106N/T262R/V115G/W38E/Y61H)
[4] = molecular target: T2, DRA1*0101/DRB1*0401 (Homo sapiens, UniProt P01903+P01911, A100K/A169T/F76Y/I96L/K127E/L162R/M171V/N62H/P40V/Q125Y/R42H/S133A/S149N/S66Y/V115G/V209L/W38E)
T2 construct: made in house

[5] = molecular target: DRA1*0101/DRB3*0301 (Homo sapiens, UniProt P01903+P79483, A169T/A212P/D57E/G115V/L67V/Q178H/R103Q/R40L/Y55F)
DRA1*0101/DRB3*0301, sequence (P01903 26-254 limits assumed): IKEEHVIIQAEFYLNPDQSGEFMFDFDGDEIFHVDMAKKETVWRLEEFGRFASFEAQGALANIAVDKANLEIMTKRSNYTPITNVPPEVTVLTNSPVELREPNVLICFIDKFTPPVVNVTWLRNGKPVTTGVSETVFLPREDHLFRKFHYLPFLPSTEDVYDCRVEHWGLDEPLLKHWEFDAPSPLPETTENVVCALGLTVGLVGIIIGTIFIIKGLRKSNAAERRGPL
DRA1*0101/DRB3*0301, sequence (P79483 30-266 R40L/Y55F/D57E/L67V/R103Q/G115V/A169T/Q178H/A212P limits assumed): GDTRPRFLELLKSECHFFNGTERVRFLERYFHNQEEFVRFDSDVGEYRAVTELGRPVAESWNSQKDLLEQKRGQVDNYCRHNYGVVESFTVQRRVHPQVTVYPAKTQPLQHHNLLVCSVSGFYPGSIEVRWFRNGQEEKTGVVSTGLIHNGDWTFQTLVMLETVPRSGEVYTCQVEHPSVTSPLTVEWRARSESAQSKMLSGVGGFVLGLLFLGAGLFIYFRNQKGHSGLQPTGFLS

DRA1*0101/DRB1*0301, sequence (P01903 26-254 limits assumed, other chains not shown): as the sequence (P01903 26-254 limits assumed) above

Sequence “YILLKKILSSRFNQM [hypothetical protein 239–253, reference compound]” has a Kd [1] of 435 nM, a Kd [2] of 20 nM and a Kd [3] of 156 nM. For the same sequence, the Kd [4] was 107 nM and the Kd [5] was 3 nM.
